According to patent US12622896B2, “Antiviral compounds, compositions and methods of use” (THE UNIVERSITY OF BRITISH COLUMBIA, priority 2019, dated 2026):
Values joined by “and” are separate entries in the source; they are usually repeats but may differ in a detail not shown here. Equal values may be shown once.

Experiments:
HIV-1NL4-3 = assay: Preliminary anti-HIV screen: CEM-GXR reporter cells co-cultured with HIV-1NL4-3 infected cells, GFP by flow cytometry; conditions: for anti-HIV activity in the primary library screen: CEM-GXR cells, 1.25-10 μM, percent infected cells on day 3 (FIGS. 1A, 1B); for anti-HIV activity, rank within the analogue series: within the C-2 substituted thiophene or thiazole series
Description: (§2) The anti-HIV activity of the compounds was measured by a human T-cell reporter assay based on CEM-GXR cells. These cells express GFP due to the activation of the tat-dependent promoter upon HIV-1 infection, and the level of infection was monitored using Flow cytometric analysis (Guavasoft 2.2™ software, Guava HT8, Millipore™). Antiviral activity was evaluated in an assay that measures the inhibition of HIV-1 spread in a co-culture of CEM-GXR cells containing one percent of HIV-1 infected (GFP positive) cells.
The reporter CEM-GXR cells were infected by co-culture with one percent HIV-1NL4-3 infected (GFP positive) cells at the start of the assay (day 0). Individual compounds from the library was added in DMSO at varying concentrations to the culture in each microplate well immediately after the inoculation by infected cells. The final library compound concentration ranged from 1.25-10 μM and the final DMSO concentration was less than 0.1%. The percent of infected cells in the culture was determined by flow cytometry on day 3 using GFP expression as a readout.

CEM-GXR cells = assay: Guava ViaCount cytotoxicity on CEM-GXR cells; type: cell-based, human; conditions: for toxicity in the preliminary screen: at 5 μM, data not shown; for toxicity of thiophene analogues: C-2 CF3 thiophene analogues
Description: The ViaCount™ assay was performed with the Guava easyCyte 8HT™ flow cytometer according to the manufacturer's manual (Guava Technologies™, Inc., Hayward, CA, USA). In brief, CEM-GXR cells were seeded in 96-well plates 80000 cells/well in the absence or presence of compound in various concentrations. Twenty-four hours later, 25 μL of cell suspension was mixed with 225 μL of Guava ViaCount™ reagent, and the mixture was incubated for 5 min at room temperature. Sample acquisition and data analysis were performed with the selection of EasyFit™ analysis feature using the ViaCount™ software module.
The potential cytotoxic effect of the molecules on CEM-GXR cells viability was determined by the Guava ViaCount assay. This assay differentially stains viable and nonviable cells based on their permeability to the DNA-binding dyes and uses the forward scatter (FSC) properties to distinguish free nuclei and cellular debris from intact cells to quantify cell count. CEM-GXR cells were incubated with compound at concentrations ranging between 0.5 and 100 μM for 24 h.

[1] = tested on: clinical isolate (11845 INI); assay: Anti-HIV assay against INI-resistant clinical isolate 11845; conditions: Human immunodeficiency virus 1, read-out: EC50 against 11845 clinical isolate
Description: as §2
(§3) This Maraviroc-resistant variant derived from a R5 strain of HIV-1BaL contains five mutations within the envelope V3 loop: A19T, L20F, T22A, E25D, and I26V.

PBMCs = assay: PBMC viability by ViaCount assay over 11 days; type: cell-based, human; conditions: up to 11 days; for cellular toxicity in PBMCs: 0.1-10 μM range
[2] = tested on: HIV-1 97USSN54 (subtype A, R5-tropic); assay: Anti-HIV viral spread assay in CEM-GXR cells, wild-type subtype A; type: cell-based; conditions: Human immunodeficiency virus 1, nonlinear regression, read-out: EC50 (WT Subtype A)
Text: (§1) To validate these EC50 values, the anti-HIV drug, emtricitabine (FTC) was included in the anti-HIV assay as a positive control.

[3] = tested on: (N)NRTI-resistant isolate (E00443); assay: Anti-HIV assay against (N)NRTI-resistant isolate E00443; conditions: Human immunodeficiency virus 1, read-out: EC50 against isolate E00443
Description: as §2

[4] = tested on: HIV-1IIIB (subtype B, X4-tropic); assay: Anti-HIV viral spread assay in CEM-GXR cells, wild-type subtype B; type: cell-based; conditions: Human immunodeficiency virus 1; CEM-GXR cells, viral spread, nonlinear regression; read-out: EC50 (WT Subtype B)
Text: as §1

[5] = tested on: Bcl-x transcript splicing; assay: SR-protein induced Bcl-x splicing, X2.13 minigene in 293 cells, RT-PCR; type: cell-based; conditions: 10 μM
[6] = tested on: Maraviroc-resistant variant of HIV-1BaL; assay: Anti-HIV assay against Maraviroc-resistant R5 strain; conditions: Human immunodeficiency virus 1, read-out: EC50 against Maraviroc-resistant HIV-1 strain
Description: as §2, §3

[7] = tested on: PI-resistant isolate (2948); assay: Anti-HIV assay against PI-resistant isolate 2948; conditions: Human immunodeficiency virus 1, read-out: EC50 against PI-resistant isolate 2948
Description: as §2

HIV-1Bal strain = assay: PBMC infection assay, p24Gag ELISA day 11, HIV-1BaL; conditions: read-out: EC50 against HIV-1Bal in PBMC; three separate donors, one value per donor; p24 day 11; listed as GPS488
Description: Peripheral blood mononuclear cells (PBMC) were obtained from healthy HIV-negative donors following written informed consent and maintained in R10+ supplemented with 50 U/mL human IL-2. […] PBMC were activated with 5 μg/ml PHA and infected 3 days later with viral stocks at a multiplicity of infection (MOI) of 0.01. At 6 h post-infection, cells were washed and re-suspended in R10+ medium supplemented with 50 U/ml of IL-2 in the presence of GPS molecules or FTC as a control compound for an additional 11 days. The accumulation of p24Gag was quantified in culture supernatants at day 11 using an enzyme-linked immunosorbent assay (ELISA; Xpress Bio™), and the increase in p24Gag values was used as the measure of viral replication.

HIV = conditions: literature; cited from earlier work

O=C(Nc1nc2c(Cl)cccc2s1)c1ccc([N+](=O)[O-])s1 [5a, N-(4-Chlorobenzo[d]thiazol-2-yl)-5-nitrothiophene-2-carboxamide]
anti-HIV activity in the primary library screen (HIV-1NL4-3): significant activity

O=C(Nc1nc2ccc(OC(F)(F)F)cc2s1)c1ccc([N+](=O)[O-])s1 [5b, 5-Nitro-N-(6-(trifluoromethoxy)benzo[d]thiazol-2-yl)thiophene-2-carboxamide]
anti-HIV activity in the primary library screen (HIV-1NL4-3): significant activity
toxicity in the preliminary screen (CEM-GXR cells): toxicity

O=C(Nc1nc2ccc([N+](=O)[O-])cc2s1)c1ccc([N+](=O)[O-])s1 [5c, 5-Nitro-N-(6-nitrobenzo[d]thiazol-2-yl)thiophene-2-carboxamide]
anti-HIV activity in the primary library screen (HIV-1NL4-3): significant activity

O=C(Nc1nc2ccc(Cl)cc2s1)c1ccc([N+](=O)[O-])s1 [5d, N-(6-Chlorobenzo[d]thiazol-2-yl)-5-nitrothiophene-2-carboxamide]
anti-HIV activity in the primary library screen (HIV-1NL4-3): significant activity

O=C(Nc1nc2c(Cl)cc(Cl)cc2s1)c1ccc([N+](=O)[O-])s1 [5e, N-(4,6-Dichlorobenzo[d]thiazol-2-yl)-5-nitrothiophene-2-carboxamide]
anti-HIV activity in the primary library screen (HIV-1NL4-3): significant activity
toxicity in the preliminary screen (CEM-GXR cells): toxicity

O=C(Nc1nc2cc(Br)ccc2s1)c1ccc([N+](=O)[O-])s1 [5f, N-(5-Bromobenzo[d]thiazol-2-yl)-5-nitrothiophene-2-carboxamide]
anti-HIV activity in the primary library screen (HIV-1NL4-3): significant activity
toxicity in the preliminary screen (CEM-GXR cells): toxicity

O=C(Nc1nc2ccccc2s1)c1ccc([N+](=O)[O-])s1 [5g, N-(Benzo[d]thiazol-2-yl)-5-nitrothiophene-2-carboxamide]
anti-HIV activity in the primary library screen (HIV-1NL4-3): moderate to weak

O=C(Nc1nc2ccc(C(F)(F)F)cc2s1)c1ccc([N+](=O)[O-])s1 [5h, 5-Nitro-N-(6-(trifluoromethyl)benzo[d]thiazol-2-yl)thiophene-2-carboxamide]
anti-HIV activity in the primary library screen (HIV-1NL4-3): significant activity

CCOC(=O)c1ccc2nc(NC(=O)c3ccc([N+](=O)[O-])s3)sc2c1 [5i, Ethyl 2-(5-nitrothiophene-2-carboxamido)benzo[d]thiazole-6-carboxylate]
anti-HIV activity in the primary library screen (HIV-1NL4-3): moderate to weak

O=C(Nc1nc2ccc(F)cc2s1)c1ccc([N+](=O)[O-])s1 [5j, N-(6-Fluorobenzo[d]thiazol-2-yl)-5-nitrothiophene-2-carboxamide]
anti-HIV activity in the primary library screen (HIV-1NL4-3): moderate to weak

O=C(Nc1nc2ccc(Br)cc2s1)c1ccc([N+](=O)[O-])s1 [5k, N-(6-Bromobenzo[d]thiazol-2-yl)-5-nitrothiophene-2-carboxamide]
anti-HIV activity in the primary library screen (HIV-1NL4-3): moderate to weak

O=C(Nc1nc2c(Cl)cccc2s1)c1ccc(C(F)(F)F)s1 [8a, N-(4-Chlorobenzo[d]thiazol-2-yl)-5-(trifluoromethyl)thiophene-2-carboxamide]
anti-HIV activity, rank within the analogue series (HIV-1NL4-3): most active

O=C(Nc1nc2ccc([N+](=O)[O-])cc2s1)c1ccc(C(F)(F)F)s1 [8b, N-(6-nitrobenzo[d]thiazol-2-yl)-5-(trifluoromethyl)thiophene-2-carboxamide]
anti-HIV activity, rank within the analogue series (HIV-1NL4-3): most active
toxicity of thiophene analogues (CEM-GXR cells): toxicity at low micromolar concentrations

O=C(Nc1nc2ccc(C(F)(F)F)cc2s1)c1ccc(C(F)(F)F)s1 [8c, 5-(trifluoromethyl)-N-(6-(trifluoromethyl)benzo[d]thiazol-2-yl)thiophene-2-carboxamide]
anti-HIV activity, rank within the analogue series (HIV-1NL4-3): most active
toxicity of thiophene analogues (CEM-GXR cells): toxicity at low micromolar concentrations

O=C(Nc1nc2c(Cl)cccc2s1)c1cnc(C(F)(F)F)s1 [12a, N-(4-chlorobenzo[d]thiazol-2-yl)-2-(trifluoromethyl)thiazole-5-carboxamide]
anti-HIV activity, rank within the analogue series (HIV-1NL4-3): most active
EC50 [1]: 951 nM
cellular toxicity in PBMCs at 1 μM (PBMCs): minimal toxicity
cellular toxicity in PBMCs (PBMCs): some cellular toxicity
EC50 [2]: 955 nM
EC50 [3]: 1160 nM
EC50 [4]: 1290 nM
generation of Bcl-xL splicing variant with SRSF1 or SRSF9 [5]: did not have any impact
abundance of Bcl-xS splice variant with SRSF2 ([5]; 24 hour): increased abundance
abundance of Bcl-xS splice variant with SRSF7 ([5]; 24 hour): decreased abundance
EC50 [6]: 969 nM
EC50 [7]: 1170 nM
EC50 (HIV-1Bal strain): 335 nM and 44 nM and 200 nM

O=C(Nc1nc2ccc([N+](=O)[O-])cc2s1)c1cnc(C(F)(F)F)s1 [12b, N-(6-nitrobenzo[d]thiazol-2-yl)-2-(trifluoromethyl)thiazole-5-carboxamide]
anti-HIV activity, rank within the analogue series (HIV-1NL4-3): most active

[N-]=[N+]=Nc1ccc2nc(NC(=O)c3cnc(C(F)(F)F)s3)sc2c1 [12e, N-(6-azidobenzo[d]thiazol-2-yl)-2-(trifluoromethyl)thiazole-5-carboxamide]
anti-HIV activity, rank within the analogue series (HIV-1NL4-3): most active
cellular toxicity in PBMCs at 1 μM (PBMCs): minimal toxicity
cellular toxicity in PBMCs (PBMCs): minimal toxicity

Nc1nc(=O)n([C@@H]2CS[C@H](CO)O2)cc1F [FTC, emtricitabine, reference compound]
EC50 [2]: 26.3 nM
EC50 [4]: 33.7 nM

O=[N+]([O-])c1ccc(C=Cc2ccc3ccccc3n2)s1 [compound 5350150, 2-(2-(5-nitro-2-thienyl)vinyl)quinolone]
HIV replication (HIV): blocked HIV replication
